Assay results from BindingDB's records for patent US11026923 (H. Lundbeck, 2021).

Legend:
Experiment in all cases: Inhibition Assay
[1] = molecular target: Dual specificity calcium/calmodulin-dependent 3',5'-cyclic nucleotide phosphodiesterase 1B (Homo sapiens, UniProt Q01064)
Method: (§1) Reactions were initiated by addition of the cyclic nucleotide substrate, and reactions were allowed to proceed for 1 hr at room temperature before being terminated through mixing with 20 uL (0.2 mg) yttrium silicate SPA beads (PerkinElmer).

[2] = molecular target: Dual specificity calcium/calmodulin-dependent 3',5'-cyclic nucleotide phosphodiesterase 1A (Human, UniProt P54750)
Method: as §1

[3] = molecular target: Dual specificity calcium/calmodulin-dependent 3',5'-cyclic nucleotide phosphodiesterase 1C (Human, UniProt Q14123)
Chain of Dual specificity calcium/calmodulin-dependent 3',5'-cyclic nucleotide phosphodiesterase 1C (Q14123 whole entry): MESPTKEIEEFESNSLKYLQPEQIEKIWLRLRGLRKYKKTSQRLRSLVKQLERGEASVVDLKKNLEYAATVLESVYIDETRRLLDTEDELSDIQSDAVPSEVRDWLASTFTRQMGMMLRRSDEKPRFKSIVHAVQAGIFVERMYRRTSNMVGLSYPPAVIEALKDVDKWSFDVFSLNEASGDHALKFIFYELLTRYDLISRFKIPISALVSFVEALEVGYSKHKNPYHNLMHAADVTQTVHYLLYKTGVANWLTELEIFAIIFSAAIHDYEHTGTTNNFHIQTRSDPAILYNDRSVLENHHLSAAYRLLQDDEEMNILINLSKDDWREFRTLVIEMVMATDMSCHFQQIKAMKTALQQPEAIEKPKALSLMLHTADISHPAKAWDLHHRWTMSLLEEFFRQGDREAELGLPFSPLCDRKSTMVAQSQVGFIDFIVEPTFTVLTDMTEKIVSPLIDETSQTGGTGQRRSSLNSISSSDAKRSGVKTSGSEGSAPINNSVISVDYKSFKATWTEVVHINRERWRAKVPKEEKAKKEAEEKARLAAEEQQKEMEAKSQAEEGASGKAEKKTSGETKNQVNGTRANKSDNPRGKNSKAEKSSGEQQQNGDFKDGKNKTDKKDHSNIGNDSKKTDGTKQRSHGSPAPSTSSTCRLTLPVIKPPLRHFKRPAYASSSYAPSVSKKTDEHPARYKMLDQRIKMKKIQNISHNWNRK
Method: as §1

Chain of Dual specificity calcium/calmodulin-dependent 3',5'-cyclic nucleotide phosphodiesterase 1B (Q01064 whole entry): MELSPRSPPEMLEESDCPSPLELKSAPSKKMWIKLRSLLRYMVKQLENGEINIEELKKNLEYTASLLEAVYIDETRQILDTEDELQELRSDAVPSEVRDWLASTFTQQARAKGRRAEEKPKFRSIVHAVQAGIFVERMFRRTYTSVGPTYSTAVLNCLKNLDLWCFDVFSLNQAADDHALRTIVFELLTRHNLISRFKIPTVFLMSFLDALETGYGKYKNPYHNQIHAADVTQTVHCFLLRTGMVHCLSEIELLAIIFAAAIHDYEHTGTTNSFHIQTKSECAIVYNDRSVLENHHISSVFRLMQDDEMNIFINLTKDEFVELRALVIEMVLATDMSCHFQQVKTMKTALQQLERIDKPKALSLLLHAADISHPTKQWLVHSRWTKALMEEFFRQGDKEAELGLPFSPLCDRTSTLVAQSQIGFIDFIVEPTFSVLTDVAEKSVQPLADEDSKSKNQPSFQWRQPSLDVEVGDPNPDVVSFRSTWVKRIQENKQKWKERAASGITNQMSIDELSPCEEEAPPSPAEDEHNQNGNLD
Chain of Dual specificity calcium/calmodulin-dependent 3',5'-cyclic nucleotide phosphodiesterase 1A (P54750 whole entry): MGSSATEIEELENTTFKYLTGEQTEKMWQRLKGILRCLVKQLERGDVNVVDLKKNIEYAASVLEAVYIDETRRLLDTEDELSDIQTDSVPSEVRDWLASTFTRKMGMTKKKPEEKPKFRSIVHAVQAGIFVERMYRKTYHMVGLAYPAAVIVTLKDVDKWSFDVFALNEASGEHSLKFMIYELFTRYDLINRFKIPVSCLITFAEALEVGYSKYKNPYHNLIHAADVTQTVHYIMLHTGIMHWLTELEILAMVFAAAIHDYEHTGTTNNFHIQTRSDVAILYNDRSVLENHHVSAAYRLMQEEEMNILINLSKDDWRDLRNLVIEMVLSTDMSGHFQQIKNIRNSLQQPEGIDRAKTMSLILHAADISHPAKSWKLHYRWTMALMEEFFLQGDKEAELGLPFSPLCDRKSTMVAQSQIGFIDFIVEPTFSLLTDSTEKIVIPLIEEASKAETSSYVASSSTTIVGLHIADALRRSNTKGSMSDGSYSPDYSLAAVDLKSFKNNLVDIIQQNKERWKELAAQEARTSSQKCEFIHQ

Row | SMILES | IC50 [1] [nM] | IC50 [2] [nM] | IC50 [3] [nM]
1 | CC1=NN(C(C)C)/C(=C(/C=C/c2cn(C)nc2C)NCc2cnn(C)c2)C1 [US11026923, Example 61] | 120 | 550 | 680
2 | COc1ncccc1/C=C/C(NCc1cnn(C)c1)=C1\CC(C)=NN1C(C)C [US11026923, Example 62] | 2.4 | 16 | 21
3 | COc1ccccc1/C=C/C(NCc1cnn(C)c1)=C1\CC(C)=NN1C(C)C [US11026923, Example 63] | 9.4 | 64 | 20
4 | CC1=NN(C(C)C)/C(=C(/C=C/c2ccccc2)NCc2cnn(C)c2)C1 [US11026923, Example 64] | 12 | 52 | 47
5 | CC1=NN(C(C)C)/C(=C(/C=C/c2ccsc2C)NCc2cnn(C)c2)C1 [US11026923, Example 65] | 1.2 | 7.9 | 
6 | CC1=NN(C(C)C)/C(=C(/C=C/c2cnn(C)c2C)NCc2cnn(C)c2)C1 [US11026923, Example 66] | 59 | 210 | 220
